≈ marks a conversion by molar mass, not a printed value.
Tested on: not listed separately
Experiment: Solubility (vortex mixed at room temperature, filtered, HPLC quantitation)
Assay type: physicochemical
Conditions: 10% CrEL/50 mM cit
Description: Ca. 1 mg portions of test article were combined with 120 μL solvent in wells of a 96×2 mL polypropylene plate. […] The contents of all wells were then filtered through a 0.45 μm GHP filter plate to yield clear filtrates. 5 μL of each filtrate was diluted into 100 μL DMF and vortex mixed to yield HPLC samples. Duplicate quantitation standards for each test article were prepared by diluting weighed portions of solid test article in measured volumes of DMF. 2 μL of each HPLC sample and quantitation standard were analyzed by HPLC using the method outlined in Table 5. Dissolved test article concentrations were calculated by peak area ratio against the appropriate quantitation standards.

Solubility	SMILES
0.157 mg/mL (≈ 0.268 mM)	CCCC(=O)OCN(C(=O)Cc1ccccc1)c1nnc(CCCCc2ccc(NC(=O)Cc3ccccc3)nn2)s1 [Compound 402]

Same assay, conditions: 20% HPBCD/50 mM cit

Solubility	SMILES
0.651 mg/mL (≈ 1.11 mM)	O=C(Cc1cccc(OC(F)(F)F)c1)Nc1ccc(CCCCc2nnc(NC(=O)[C@@H](O)c3ccccc3)s2)nn1 [Compound 703]

Same assay, conditions: Capryol 90

Solubility	SMILES
1.744 mg/mL (≈ 3.06 mM)	O=C(Cc1cccc(OC(F)(F)F)c1)Nc1ccc(CCCCc2nnc(NC(=O)Cc3ccccc3)s2)nn1 [Compound 585]

Same assay, conditions: PEG400

Solubility	SMILES
30.179 mg/mL (≈ 51.4 mM)	CCCC(=O)OCN(C(=O)Cc1ccccc1)c1nnc(CCCCc2ccc(NC(=O)Cc3ccccc3)nn2)s1 [Compound 402]

Same assay, conditions: PG

Solubility	SMILES
8.265 mg/mL (≈ 13.3 mM)	O=C(Cc1cccc(OC(F)(F)F)c1)Nc1ccc(CCCCc2nnc(NC(=O)C(O)c3cccc(Cl)c3)s2)nn1 (centres unmarked) [Compound 447]

Molecular target: recombinant form of Glutaminase 1 (GAC) (Homo sapiens, UniProt O94925)
Experiment: Recombinant enzyme assay (GAC, GDH-coupled absorbance, no preincubation)
Assay type: biochemical
Conditions: read-out: GAC Delta N2 IC50 no preinc
Description: Enzymatic reaction was started with the addition of 50 μL of enzyme solution (50 mM Tris-HCl pH 8.0, 0.2 mM EDTA, 150 mM K2HPO4, 0.1 mg/ml BSA, 1 mM DTT, 10 ppm antifoam, 4 units/ml GDH, 4 mM adenosine diphosphate, and 4 nM GAC) and read in a Molecular Devices M5 plate reader at 20° C. The plate reader was configured to read absorbance (λ=340 nm) in kinetic mode for 15 minutes. Data was recorded as milli-absorbance units per minute and slopes were compared to a control compound and a DMSO-only control on the same plate. Compounds with slopes less than the DMSO control were considered inhibitors and plate variability was assessed using the control compound.

IC50	SMILES
> 20 µM	CC[C@](O)(C(=O)Nc1nnc(CCCCc2nnc(NC(=O)[C@@](O)(CC)c3ccccc3)s2)s1)c1ccccc1 (single isomer, unassigned) [Compound 144]
> 20 µM	O=C(Cc1nnc(CCSCCc2nnc(NC(=O)C3CCOCC3)s2)s1)C1CCOCC1 [Compound 108]
0.75 µM	O=C(N[C@@H](CO)C(=O)Nc1nnc(CCSCCc2nnc(NC(=O)[C@H](CO)NC(=O)OCc3ccccc3)s2)s1)OCc1ccccc1 [Compound 138]
> 20 µM	CC(C)(C)c1ccc(CC(=O)Nc2nnc(CCCCc3nnc(NC(=O)Cc4ccc(C(C)(C)C)cc4)s3)s2)cc1 [Compound 191]
> 20 µM	CC(C)(C)OC(=O)Nc1ccc(CC(=O)Nc2nnc(CCCCc3nnc(NC(=O)Cc4ccc(NC(=O)OC(C)(C)C)cc4)s3)s2)cc1 [Compound 192]
3.4 µM	O=C(Cc1cc2ccccc2o1)Nc1nnc(CCSCCc2nnc(NC(=O)Cc3cc4ccccc4o3)s2)s1 [Compound 193]
> 20 µM	O=C(Cc1ccc(Cl)s1)Nc1cnc(CCSCCc2nnc(NC(=O)Cc3ccc(Cl)s3)s2)s1 [Compound 206]
13 µM	O=C(Cc1cc2ccccc2s1)Nc1cnc(CCSCCc2nnc(NC(=O)Cc3cc4ccccc4s3)s2)s1 [Compound 207]
> 20 µM	CC1(C)O[C@@H](C(=O)Nc2nnc(CCCCc3nnc(NC(=O)[C@@H]4OC(C)(C)O[C@H]4c4ccccc4)s3)s2)[C@H](c2ccccc2)O1 [Compound 223]
0.16 µM	CCOc1ccccc1CC(=O)Nc1nnc(CCCCc2nnc(NC(=O)Cc3ccccc3OC)s2)s1 [Compound 300]

SMILES	IC50
O=C(Nc1nnc(CCCCc2nnc(NC(=O)C3COc4ccccc43)s2)s1)C1COc2ccccc21 (centres unmarked) [Compound 135]	0.3 µM
COc1cc(CC(=O)Nc2nnc(CCSCCc3nnc(NC(=O)Cc4cc(OC)cc(OC)c4)s3)s2)cc(OC)c1 [Compound 202]	0.18 µM
COc1cccc(CC(=O)Nc2nnc(CCSCc3nnc(NC(=O)Cc4cccc(OC)c4)s3)s2)c1 [Compound 250]	0.12 µM
O=C(O)Cc1cccc(CC(=O)Nc2nnc(CCCCc3nnc(NC(=O)Cc4cccc(CC(=O)O)c4)s3)s2)c1 [Compound 313]	0.27 µM
Nc1cccc(CC(=O)Nc2nnc(CCCCc3nnc(NC(=O)Cc4cccc(N)c4)s3)s2)c1 [Compound 329]	0.17 µM
O=C(Cc1ccccc1)Nc1ccc(CCCCc2nnc(NC(=O)Cc3cccc(O)c3)s2)nn1 [Compound 337]	0.076 µM

Tested on: P493-6 (myc "on") cells
Experiment: Cell proliferation assay (72 hrs, Cell Titer Glo or Viacount FACS)
Assay type: cell-based
Conditions: P493-6 (myc on) cells, 72 hrs; read-out: Cell prolif P493 IC50
Description: P493-6 (myc “on”) cells were maintained in growth media (RPMI-1640, 10% FBS, 2 mM glutamine, 100 units/ml Penicillin and 100 μg/ml streptomycin) at 37° C. with 5% CO2. For compound assay, P493-6 cells were plated in 96-well V-bottom plates on the day of compound addition in 50 μl of growth media at a cell density of 200,000 cells/ml (10,000 cells/well). Compounds were serially diluted in 100% DMSO at 200-times the final concentration. Compounds were diluted 100-fold into growth media and then 50 μl of this mixture was added to cell plates making the final concentration of DMSO 0.5%. Cells were incubated with compound for 72 hrs at 37° C. with 5% CO2 and analyzed for antiproliferative effects either by Cell Titer Glo (Promega) or FACS analysis using the Viacount (Millipore) kit on the Guava instrument.

SMILES	IC50
CC1(CC(=O)Nc2ccc(CCCCc3nnc(NC(=O)Cc4cccc(CNC(=O)OC(C)(C)C)c4)s3)nn2)COC(C)(C)OC1 [Compound 529]	0.16 µM
CCCC(=O)OCN(C(=O)C(CO)c1cccc(CNC(=O)OC(C)(C)C)c1)c1nnc(CCCCc2ccc(NC(=O)Cc3ccccc3)nn2)s1 (centres unmarked) [Compound 567]	0.021 µM
CC(C(=O)Nc1nnc(CCCCc2ccc(NC(=O)Cc3ccccc3)nn2)s1)c1ccc(F)c(CNC(=O)OC(C)(C)C)c1 (centres unmarked) [Compound 568]	0.028 µM
CCNC(=O)CC(C)c1cccc(CC(=O)Nc2ccc(CCCCc3nnc(NC(=O)Cc4cccc(OC(F)(F)F)c4)s3)nn2)c1 (centres unmarked) [Compound 596]	0.33 µM
O=C(Cc1ccc(OC(F)(F)F)cc1)Nc1ccc(CCCCc2nnc(NC(=O)Cc3ccccc3)s2)nn1 [Compound 615]	0.012 µM
O=C(Cc1cccc(OC(F)(F)F)c1)Nc1ccc(CCCCc2nnc(NC(=O)Cn3c(CN4CCOCC4)nc4ccccc43)s2)nn1 [Compound 702]	0.31 µM

Same assay, conditions: P493-6, read-out: Cell prolif P493 72 h IC50; P493 cells, 72 h

SMILES	IC50
O=C(C[C@@H](O)c1ccccc1)Nc1nnc(CCSCCc2nnc(NC(=O)C[C@@H](O)C3CCCCC3)s2)s1 [Compound 126]	12 µM
CCOc1ccccc1CC(=O)Nc1nnc(CCCCc2nnc(NC(=O)Cc3ccccc3OC)s2)s1 [Compound 300]	0.16 µM
CCOC(=O)Nc1nnc(CCCCc2nnc(NC(=O)Cc3ccccc3)s2)s1 [Compound 369]	1.9 µM

Same assay, conditions: read-out: Cell prolif P493 72 h IC50; P493 cells, 72 h

SMILES	IC50
COC(C(=O)Nc1nnc(CCSCCc2nnc(NC(=O)C(OC)c3ccccc3)s2)s1)c1ccccc1 (centres unmarked) [Compound 67]	1.8 µM
O=C(Cc1cccc(OCCO)c1)Nc1nnc(CCSCCc2nnc(NC(=O)Cc3cccc(OCCO)c3)s2)s1 [Compound 236]	1.4 µM
O=C(Cc1cccs1)Nc1nnc(CCSCc2nnc(NC(=O)Cc3cccs3)s2)s1 [Compound 237]	0.25 µM
O=C(Cc1cccc(OCCN2CCOCC2)c1)Nc1nnc(CCSCCc2nnc(NC(=O)Cc3cccc(OCCN4CCOCC4)c3)s2)s1 [Compound 240]	1.3 µM
O=C(CN1C(=O)OC[C@H]1c1ccccc1)Nc1nnc(CCSCCc2nnc(NC(=O)CN3C(=O)OC[C@H]3c3ccccc3)s2)s1 [Compound 243]	33 µM
CCOC(=O)Nc1nnc(CCCCc2nnc(NC(=O)Cc3ccccc3)s2)s1 [Compound 244]	1.7 µM
COc1ccccc1CC(=O)Nc1nnc(CCSCCc2nnc(NC(=O)C(CO)c3ccccc3OC)s2)s1 (centres unmarked) [Compound 246]	1.6 µM
Cc1cccc(CC(=O)Nc2nnc(CCSCCc3nnc(NC(=O)Cc4cccc(C)c4)s3)s2)c1 [Compound 247]	0.83 µM
COc1ccccc1CC(=O)Nc1nnc(CCSCc2nnc(NC(=O)Cc3ccccc3OC)s2)s1 [Compound 249]	0.16 µM
COc1cccc(CC(=O)Nc2nnc(CCSCc3nnc(NC(=O)Cc4cccc(OC)c4)s3)s2)c1 [Compound 250]	0.14 µM
COc1cccc(C(CO)C(=O)Nc2nnc(CCCCc3nnc(NC(=O)C(CO)c4cccc(OC)c4)s3)s2)c1 (centres unmarked) [Compound 257]	0.073 µM
COc1cccc(C(CO)C(=O)Nc2nnc(CCSCc3nnc(NC(=O)C(CO)c4cccc(OC)c4)s3)s2)c1 (centres unmarked) [Compound 258]	0.18 µM
COc1cccc(CC(=O)Nc2nnc(CCSCCc3nnc(NC(=O)Cc4cccc(OC)c4OC)s3)s2)c1OC [Compound 259]	0.57 µM
COc1cccc(CC(=O)Nc2nnc(CCCCc3nnc(NC(=O)Cc4cccc(OC)c4OC)s3)s2)c1OC [Compound 260]	0.084 µM
CC(C(=O)Nc1nnc(CCSCCc2nnc(NC(=O)C(C)c3ccccc3Cl)s2)s1)c1ccccc1Cl (centres unmarked) [Compound 261]	2.6 µM
Cc1ccccc1C(C)C(=O)Nc1nnc(CCSCCc2nnc(NC(=O)C(C)c3ccccc3C)s2)s1 (centres unmarked) [Compound 262]	3.1 µM
COc1ccccc1CC(=O)Nc1nnc(CCCCc2nnc(NC(=O)Cc3ccccc3OC)s2)s1 [Compound 264]	0.01 µM
O=C(Cc1cccc(OCCN2CCOCC2)c1)Nc1nnc(CCSCc2nnc(NC(=O)Cc3cccc(OCCN4CCOCC4)c3)s2)s1 [Compound 267]	0.64 µM
O=C(Cc1ccc2ncccc2c1)Nc1nnc(CCSCCc2nnc(NC(=O)Cc3ccc4ncccc4c3)s2)s1 [Compound 268]	5.4 µM
O=C(Cc1ccc2ncccc2c1)Nc1nnc(CCCCc2nnc(NC(=O)Cc3ccc4ncccc4c3)s2)s1 [Compound 269]	0.52 µM
O=C(Cc1cccc(Br)c1)Nc1nnc(CCSCCc2nnc(NC(=O)Cc3cccc(Br)c3)s2)s1 [Compound 270]	0.85 µM
CC(C(=O)Nc1nnc(CCCCc2nnc(NC(=O)C(C)c3ccccc3Cl)s2)s1)c1ccccc1Cl (centres unmarked) [Compound 274]	0.68 µM
CC(C)(C)OC(=O)N1CCN(Cc2cccc(CC(=O)Nc3nnc(CCSCc4nnc(NC(=O)Cc5cccc(CN6CCN(C(=O)OC(C)(C)C)CC6)c5)s4)s3)c2)CC1 [Compound 275]	0.34 µM
O=C(Cc1cccc(-n2cccn2)c1)Nc1nnc(CCCCc2nnc(NC(=O)Cc3cccc(-n4cccn4)c3)s2)s1 [Compound 285]	0.14 µM
O=C(O)Cc1cccc(CC(=O)Nc2nnc(CCCCc3nnc(NC(=O)Cc4cccc(CC(=O)O)c4)s3)s2)c1 [Compound 313]	94 µM
CC(C)(C)OC(=O)Nc1cccc(CC(=O)Nc2nnc(CCCCc3nnc(NC(=O)Cc4cccc(NC(=O)OC(C)(C)C)c4)s3)s2)c1 [Compound 327]	0.15 µM
Nc1cccc(CC(=O)Nc2nnc(CCCCc3nnc(NC(=O)Cc4cccc(N)c4)s3)s2)c1 [Compound 329]	0.45 µM
O=C(Cc1cccc(Cn2cccn2)c1)Nc1nnc(CCCCc2nnc(NC(=O)Cc3cccc(Cn4cccn4)c3)s2)s1 [Compound 362]	0.054 µM
O=C(Cc1cccc(-n2ccnc2)c1)Nc1nnc(CCCCc2nnc(NC(=O)Cc3cccc(-n4ccnc4)c3)s2)s1 [Compound 363]	> 20 µM

From patent US9938267B2, “Heterocyclic inhibitors of glutaminase” (Calithera Biosciences, Inc., priority 2011, dated 2018)
